Source: patent US10865191B2, “Heterocyclic compounds useful as modulators of TNF alpha” (BRISTOL-MYERS SQUIBB COMPANY, priority 2015, dated 2020)

target: TNFα (Homo sapiens, UniProt P01375); experiment: TNF induced HEK-Blue assay (NF-kB-driven secreted alkaline phosphatase reporter); type: cell-based; settings: TNF induced HEK-Blue assay IC50 value, TNFα 0.5 ng/mL, HEK-Blue-CD40L cells, 18 h
Method: TNF or CD40L-Induced HEK-Blue Assay
Test compounds serially diluted in DMSO were plated in an assay plate (LABCYTE, Cat. # LP-0200) at final concentrations ranging from 0.004 μM to 25 μM. TNFα (final concentration 0.5 ng/mL) or CD40L (final concentration 30 ng/mL) in assay buffer [DMEM, 4.5 g/l glucose (Gibco, Cat. 21063-029), 10% FBS (Sigma, F4135), 1% Penicillin-Streptomycin (Gibco, Cat. 15140-122), 1% Anti-Anti (Gibco, Cat. 15240-112) and 2 mM L-glutamine (Gibco, Cat. 25030-081)] was then added to the assay plate. After a 30 minute pre-incubation at 37° C. and 5% CO2, HEK-Blue™-CD40L cells (INVIVOGEN, Cat. Code hkb-cd40) containing a NF-kB-driven secreted alkaline phosphatase reporter gene were seeded into the assay plate at a density of 20,000 cells per well. This plate was then incubated for 18 h at 37° C. and 5% CO2. Secreted alkaline phosphatase expression was measured using QUANTI-Blue™ (INVIVOGEN, Cat. Code rep-qb1) according to manufacturer's specifications and the assay plate was read on a PerkinElmer Envision at 620 nm.
Inhibition data for the test compound over a range of concentrations was plotted as percentage inhibition of the test compound (100%=maximum inhibition). IC50 values were determined after correcting for background [(sample read-mean of low control)/(mean of high control-mean of low control)] where by the low control is DMSO without stimulation and high control is DMSO with stimulation. The IC50 is defined as the concentration of test compound which produces 50% inhibition and was quantified using the 4 parameter logistic equation to fit the data.

TNFα, sequence (P01375 77-233 limits assumed): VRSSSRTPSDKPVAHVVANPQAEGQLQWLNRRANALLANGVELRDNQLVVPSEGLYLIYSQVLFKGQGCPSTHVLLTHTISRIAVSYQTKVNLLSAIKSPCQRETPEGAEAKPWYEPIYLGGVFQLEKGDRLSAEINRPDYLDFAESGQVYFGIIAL

SMILES	IC50
CC(Nc1c(Cl)cnc2ccc(-c3cnc(C(C)(C)O)nc3)cc12)c1ccccc1C(F)(F)F (racemic) [Example 151, 2-(5-(3-chloro-4-((1-(2-(trifluoromethyl)phenyl)ethyl)amino)quinolin-6-yl)pyrimidin-2-yl)propan-2-ol]	< 1000 nM
CC(Nc1c(Cl)cnc2ccc(-c3cnc(C(C)(C)O)nc3)cc12)c1ccccc1F (racemic) [Example 152, 2-(5-(3-chloro-4-((1-(2-fluorophenyl)ethyl)amino)quinolin-6-yl)pyrimidin-2-yl)propan-2-ol]	< 1000 nM
CC(Nc1c(Cl)cnc2ccc(-c3cnc(C(C)(C)O)nc3)cc12)c1cccc(F)c1 (racemic) [Example 155, 2-(5-(3-chloro-4-((1-(3-fluorophenyl)ethyl)amino)quinolin-6-yl)pyrimidin-2-yl)propan-2-ol]	1000 to 10000 nM
CC(Nc1c(Cl)cnc2ccc(-c3cnc(C(C)(C)O)nc3)cc12)c1ccc(F)cc1 (racemic) [Example 157, 2-(5-(3-chloro-4-((1-(4-fluorophenyl)ethyl)amino)quinolin-6-yl)pyrimidin-2-yl)propan-2-ol]	10000 to 25000 nM
CCC(Nc1c(Cl)cnc2ccc(-c3cnc(C(C)(C)O)nc3)cc12)c1ccccc1F (racemic) [Example 190, 2-(5-(3-chloro-4-((1-(2-fluorophenyl)propyl)amino)quinolin-6-yl)pyrimidin-2-yl)propan-2-ol]	< 1000 nM

same assay, conditions: TNFα 0.5 ng/mL, HEK-Blue-CD40L cells, 18 h; read-out: TNF induced HEK-Blue assay IC50 value

SMILES	IC50
CC(Nc1c(Cl)cnc2ccc(-c3cnc(C(C)(C)O)nc3)cc12)c1ccc(C(F)(F)F)cc1 (racemic) [Example 150, 2-(5-(3-chloro-4-((1-(4-(trifluoromethyl)phenyl)ethyl)amino)quinolin-6-yl)pyrimidin-2-yl)propan-2-ol]	10000 to 25000 nM
CC(Nc1c(Cl)cnc2ccc(-c3cnc(C(C)(C)O)nc3)cc12)c1ccccc1Cl (racemic) [Example 153, 2-(5-(3-chloro-4-((1-(2-chlorophenyl)ethyl)amino)quinolin-6-yl)pyrimidin-2-yl)propan-2-ol]	< 1000 nM
CC(Nc1c(F)cnc2ccc(-c3cnc(C(C)(C)O)nc3)cc12)c1ccccc1F (racemic) [Example 156, 2-(5-(3-fluoro-4-((1-(2-fluorophenyl)ethyl)amino)quinolin-6-yl)pyrimidin-2-yl) propan-2-ol]	1000 to 10000 nM
Cc1nc2ccc(-c3cnc(C(C)(C)O)nc3)cc2c(NC(C)c2ccccc2F)c1F (racemic) [Example 159, 2-(5-(3-fluoro-4-((1-(2-fluorophenyl)ethyl)amino)-2-methylquinolin-6-yl)pyrimidin-2-yl)propan-2-ol]	10000 to 25000 nM
CC(Nc1c(Cl)cnc2ccc(-c3cnc(C(C)(C)O)nc3)cc12)c1cc(F)ccc1F (racemic) [Example 160, 2-(5-(3-chloro-4-((1-(2,5-difluorophenyl)ethyl)amino)quinolin-6-yl)pyrimidin-2-yl)propan-2-ol]	< 1000 nM
CC(Nc1c(Cl)cnc2ccc(-c3cnc(C(C)(C)O)nc3)cc12)c1ccncc1F (racemic) [Example 162, 2-(5-(3-chloro-4-((1-(3-fluoropyridin-4-yl)ethyl)amino)quinolin-6-yl)pyrimidin-2-yl)propan-2-ol]	< 1000 nM
CC(Nc1c(Cl)cnc2ccc(-c3cnc(C(C)(C)O)nc3)cc12)c1ccc(F)cc1F (racemic) [Example 163, 2-(5-(3-chloro-4-((1-(2,4-difluorophenyl)ethyl)amino)quinolin-6-yl)pyrimidin-2-yl)propan-2-ol]	1000 to 10000 nM
CC(C)(O)c1ncc(-c2ccc3ncc(Cl)c(NC(c4ccccc4F)C(F)(F)F)c3c2)cn1 (racemic) [Example 164, 2-(5-(3-chloro-4-((2,2,2-trifluoro-1-(2-fluorophenyl)ethyl)amino)quinolin-6-yl)pyrimidin-2-yl)propan-2-ol]	1000 to 10000 nM
CC(C)(O)c1ncc(-c2ccc3ncc(Cl)c(NC(CC(F)(F)F)c4ccccc4)c3c2)cn1 (racemic) [Example 165, 2-(5-(3-chloro-4-((3,3,3-trifluoro-1-phenylpropyl)amino)quinolin-6-yl)pyrimidin-2-yl)propan-2-ol]	< 1000 nM
CC(Nc1c(Cl)cnc2ccc(-c3ccc(C(C)(C)O)cc3)cc12)c1cccnc1 (racemic) [Example 166, 2-(4-(3-chloro-4-((1-(pyridin-3-yl)ethyl)amino)quinolin-6-yl)phenyl)propan-2-ol]	10000 to 25000 nM
CC(C)(O)c1ncc(-c2ccc3ncc(Cl)c(NC(CCO)c4ccccc4F)c3c2)cn1 (racemic) [Example 167, 3-((3-chloro-6-(2-(2-hydroxypropan-2-yl)pyrimidin-5-yl)quinolin-4-yl)amino)-3-(2-fluorophenyl)propan-1-ol]	< 1000 nM
CC(C)(O)c1ncc(-c2ccc3ncc(Cl)c(NC(CC(F)F)c4ccccc4F)c3c2)cn1 (racemic) [Example 168, 2-(5-(3-chloro-4-((3,3-difluoro-1-(2-fluorophenyl)propyl)amino)quinolin-6-yl)pyrimidin-2-yl)propan-2-ol]	< 1000 nM
CC(C)(O)c1ncc(-c2ccc3ncc(Cl)c(NC(CC(F)(F)F)c4ccccc4F)c3c2)cn1 (racemic) [Example 169, 2-(5-(3-chloro-4-((3,3,3-trifluoro-1-(2-fluorophenyl)propyl)amino)quinolin-6-yl)pyrimidin-2-yl)propan-2-ol]	< 1000 nM
CC(Nc1c(Cl)cnc2ccc(-c3ccc(C(C)(C)O)cc3)cc12)c1ncccc1F (racemic) [Example 170, 2-(4-(3-chloro-4-((1-(3-fluoropyridin-2-yl)ethyl)amino)quinolin-6-yl)phenyl) propan-2-ol]	< 1000 nM
CC(Nc1c(Cl)cnc2ccc(-c3cnc(C(C)(C)O)nc3)cc12)c1ncccc1F (racemic) [Example 171, 2-(5-(3-chloro-4-((1-(3-fluoropyridin-2-yl)ethyl)amino)quinolin-6-yl)pyrimidin-2-yl)propan-2-ol]	< 1000 nM
CC(Nc1c(Cl)cnc2ccc(-c3ccc(C(C)(C)O)cc3)cc12)c1cnsc1 (racemic) [Example 172, 2-(4-(3-chloro-4-((1-(isothiazol-4-yl)ethyl)amino)quinolin-6-yl)phenyl)propan-2-ol]	10000 to 25000 nM
CC(Nc1c(Cl)cnc2ccc(-c3ccc(C(C)(C)O)cc3)cc12)c1ccncn1 (racemic) [Example 173, 2-(4-(3-chloro-4-((1-(pyrimidin-4-yl)ethyl)amino)quinolin-6-yl)phenyl)propan-2-ol]	1000 to 10000 nM
CC(Nc1c(Cl)cnc2ccc(-c3ccc(C(C)(C)O)cc3)cc12)c1ccon1 (racemic) [Example 174, 2-(4-(3-chloro-4-((1-(isoxazol-3-yl)ethyl)amino)quinolin-6-yl)phenyl)propan-2-ol]	10000 to 25000 nM
CC(Nc1c(Cl)cnc2ccc(-c3ccc(C(C)(C)O)cc3)cc12)c1ccccn1 (racemic) [Example 175, 2-(4-(3-chloro-4-((1-(pyridin-2-yl)ethyl)amino)quinolin-6-yl)phenyl)propan-2-ol]	< 1000 nM
CC(Nc1c(Cl)cnc2ccc(-c3ccc(C(C)(C)O)cc3)cc12)c1ccncc1 (racemic) [Example 176, 2-(4-(3-chloro-4-((1-(pyridin-4-yl)ethyl)amino)quinolin-6-yl)phenyl)propan-2-ol]	< 1000 nM
CC(Nc1c(Cl)cnc2ccc(-c3ccc(C(C)(C)O)cc3)cc12)c1ncccn1 (racemic) [Example 177, 2-(4-(3-chloro-4-((1-(pyrimidin-2-yl)ethyl)amino)quinolin-6-yl)phenyl)propan-2-ol]	< 1000 nM
Cc1ccnc(C(C)Nc2c(Cl)cnc3ccc(-c4ccc(C(C)(C)O)cc4)cc23)n1 (racemic) [Example 178, 2-(4-(3-chloro-4-((1-(4-methylpyrimidin-2-yl)ethyl)amino)quinolin-6-yl)phenyl)propan-2-ol]	< 1000 nM
CC(Nc1c(Cl)cnc2ccc(-c3ccc(C(C)(C)O)cc3)cc12)c1ncco1 (racemic) [Example 179, 2-(4-(3-chloro-4-((1-(oxazol-2-yl)ethyl)amino)quinolin-6-yl)phenyl)propan-2-ol]	< 1000 nM
CC(C)(O)c1ncc(-c2ccc3ncc(Cl)c(NC(c4ccccc4F)C4CC4)c3c2)cn1 (racemic) [Example 191, 2-(5-(3-chloro-4-((cyclopropyl(2-fluorophenyl)methyl)amino)quinolin-6-yl)pyrimidin-2-yl)propan-2-ol]	< 1000 nM
CC(Nc1c(Cl)cnc2ccc(-c3ccc(C(C)(C)O)cc3)cc12)c1ccco1 (racemic) [Example 192, 2-(4-(3-chloro-4-((1-(furan-2-yl)ethyl)amino)quinolin-6-yl)phenyl)propan-2-ol]	< 1000 nM
CC(Nc1c(Cl)cnc2ccc(-c3ccc(C(C)(C)O)cc3)cc12)c1nccs1 (racemic) [Example 194, 2-(4-(3-chloro-4-((1-(thiazol-2-yl)ethyl)amino)quinolin-6-yl)phenyl)propan-2-ol]	< 1000 nM
